Where two headings read alike, the source gives them in different places. One block for each molecule: values may come before it.
Legend:
human P450 51A1 [1] = target: T1, human P450 51A1 (Homo sapiens, UniProt Q16850); experiment: Spectral (difference spectroscopy) Kd estimates of P450 51A1-sterol complexes; type: binding; set-up: made in house; host or cells: Escherichia coli
T1 sequence (Q16850 1-509): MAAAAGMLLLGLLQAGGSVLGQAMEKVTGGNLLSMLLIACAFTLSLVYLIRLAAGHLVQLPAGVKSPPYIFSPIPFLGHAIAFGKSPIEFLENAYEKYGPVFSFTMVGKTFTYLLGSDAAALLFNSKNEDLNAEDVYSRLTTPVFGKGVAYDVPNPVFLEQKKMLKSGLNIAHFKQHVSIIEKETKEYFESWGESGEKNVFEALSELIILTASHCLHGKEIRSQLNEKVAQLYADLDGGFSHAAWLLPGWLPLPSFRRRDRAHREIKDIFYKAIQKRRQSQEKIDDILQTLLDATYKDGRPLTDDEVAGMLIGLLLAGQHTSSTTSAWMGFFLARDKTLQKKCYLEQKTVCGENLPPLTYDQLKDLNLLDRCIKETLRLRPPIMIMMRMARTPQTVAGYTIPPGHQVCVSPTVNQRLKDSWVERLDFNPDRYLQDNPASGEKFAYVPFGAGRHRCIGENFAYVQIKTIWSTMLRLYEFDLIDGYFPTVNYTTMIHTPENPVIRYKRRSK
Protocol: Kd values were estimated by difference spectroscopy. P450 51A1 (1.0 μM) was in each of two glass cuvettes (in 100 mM potassium phosphate buffer, pH 7.4) and a baseline was recorded (OLIS-Amino DW2a). Aliquots of a solution of each sterol–HPCD complex were added to the sample cuvette and an equivalent amount of HPCD was added to the reference cuvette, and spectra were recorded. The time between the collection of individual spectra was ∼3 min. The maximum absorbance difference (usually ΔA390-A418) was plotted versus the nominal concentration of added sterol, and the data were fit to hyperbolae in GraphPad Prism software (GraphPad, https://www.graphpad.com), using a quadratic equation to correct the ligand concentration for the enzyme-bound concentration (used as Y=B+(A/2)∗(1/E)∗((Kd+E+X)-sqrt((Kd + E+X)^∧2-(4∗E∗X)) in Prism software). The linear regression fits include the internal error estimates (SE).

human P450 51A1 [2] = target: T1, human P450 51A1; experiment: Steady-state LC-UV assay of sterol oxidation to dihydro FF-MAS by reconstituted P450 51A1; conditions: oxidation to dihydro FF-MAS (epi-dihydro FF-MAS from epi substrate), 37 °C
Protocol: Steady-state incubations (500 μl) were generally done at 37 °C with 0.025 μM P450 51A1, 0.10 μM NADPH-P450 reductase, 100 μM L-α-dilauroyl-sn-glycero-3-phosphocholine, 50 mM potassium phosphate buffer (pH 7.4), 10% (v/v) glycerol, and an indicated concentration of each sterol (in 45% (w/v) HPCD). […] The sterols (stored at 4 °C) were prepared as described above and were heated to 37 °C and sonicated prior to use. Sterol working stocks were diluted in HPCD to ensure a constant concentration of cyclodextrin in each reaction. […] Accordingly, all reactions were done with this concentration of glycerol.
Reactions were preincubated (5 min, 37 °C) prior to initiation with an NADPH-regenerating system (0.5 mM NADP^+, 10 mM glucose 6-phosphate, and 2 μg ml^−1 glucose 6-phosphate dehydrogenase) ([60]) and were stopped after 5 min with the addition of CH2Cl2 (5 ml). (The NADPH-generating system, in addition to lower cost than NADPH, drives the reaction to avoid inhibition of the reductase by accumulated NADP^+). For the 14α-aldehyde, the times of preincubation and reaction were reduced (to 2 min and 1 min, respectively). The quenched mixture was centrifuged (2000g, 5 min), and 4 ml of the bottom (organic) layer was transferred to vials and brought to dryness under a stream of N2 gas. The dried residue was resuspended in CH3OH (100 μl) and was analyzed by UPLC using a 2.1 mm × 100 mm (1.7 μm) octadecylsilane (C18) column (held at 25 °C) and a Waters Acquity UPLC system. Samples (4 °C) were injected (10 μl) at a flow rate of 0.20 ml min^−1 using an isocratic mobile phase of CH3CN (only). The product (FF-MAS) was detected using a Waters Acquity photodiode array detector set at 250 nm (Fig. 4B). Data were processed using the MassLynx software (http://www.waters.com/waters/en_US/MassLynx-Mass-Spectrometry-Software-/nav.htm?cid=513164&locale=en_US), and the amount of product formed was calculated by comparison to a twelve-point dihydro FF-MAS standard curve. Determination of kcat and Km for each reaction was carried out by fitting the data to a Michaelis–Menten hyperbola, which was done using GraphPad Prism.
Incubations were run in triplicate, and the mean values (±SD) were calculated and plotted. The linear regression fits include the Prism error estimates for internal fitting (SE).

human P450 51A1 [3] = target: T1, human P450 51A1; experiment: Stopped-flow rate of ketoconazole binding to P450 51A1; set-up: made in house; host or cells: Escherichia coli; conditions: 10 μM ketoconazole, 1 μM P450 51A1 final
human P450 51A1 [4] = target: T1, human P450 51A1; experiment: Single-turnover rapid-quench kinetics of [3-3H]-dihydrolanosterol oxidation (radio-HPLC); type: biochemical; set-up: made in house; host or cells: Escherichia coli
Protocol: All products were separated and quantified by radio-HPLC (Fig. S24).
Samples (held at 4 °C) were injected (45 μl) onto a Nova-Pak 3.9 mm × 150 mm (4 μm) octadecylsilane (C18) HPLC column (held at 23 °C). The products were separated at a flow rate of 1.0 ml min^−1 using an isocratic mobile phase composed of CH3CN (only) as was done for the LC-UV assays (above). The eluate from the column was mixed (1:2, v-v) with FlowLogic U scintillation cocktail, and radioactivity (^3H) was detected on a β-RAM Model 5 system (IN/US, LabLogic) (Fig. S24). Product formation was assessed as the relative contribution of each peak (in CPM) to the summed peak area of substrate and product(s).
The single-turnover experiments were performed using a KinTek rapid quench-flow apparatus (KinTek). This machine functions by forcing equal volumes (∼19 μl) of two separate solutions into a central mixing chamber, where the components are allowed to incubate for a predetermined period of time before an excess volume of quench solution (∼160 μl) stops the reaction and expels the mixture from the apparatus. […] After the predetermined incubation period, the reaction (37 °C) was quenched with HCl (1 M), and the mixture (∼200 μl) was collected into vials. The products of five identical reactions (time points) were combined and were extracted into CH2Cl2 (5 ml). An aliquot (4 ml) of the lower (organic) layer was removed into a fresh vial, and the extraction was repeated to maximize sample recovery. The pooled organic fraction (∼8 ml) was brought to dryness under a stream of N2 gas, and the residue was redissolved in 60 μl of CH3OH and transferred to LC vials for analysis.

human P450 51A1 [5] = experiment: Kinetic modeling (KinTek Explorer) of the single-turnover time course
From the text: The initial koff rate constants used in fitting were the koff rates measured in the stopped-flow trap experiments (Fig. 9). All three oxidation reactions are irreversible, and thus k-2, k-4, and k-6 were set to zero.
Data were imported into KinTek Explorer software (v. 11.01, KinTek, https://kintekcorp.com/software) ([63], [64]) as txt files and processed using an Apple computer (operating system 11.6.2).

human P450 51A1 [6] = target: T1, human P450 51A1; experiment: Stopped-flow koff measurements of P450 51A1-sterol complexes with ketoconazole trap; type: binding; set-up: made in house; host or cells: Escherichia coli; conditions: 23 °C, 10 μM ketoconazole trap, 1 μM P450 51A1
Protocol: All assays were done at 23 °C in an OLIS-RSM 1000 stopped-flow spectrophotometer, collecting data every 1 ms over a range of 332 to 565 nm with slit widths of 1.24 mm (8 nm bandpass) and gratings with 400 lines/mm and 500 nm blaze. One syringe contained 20 μM ketoconazole dissolved in 100 mM potassium phosphate buffer (pH 7.4). In a preliminary experiment in which this was mixed with an equal volume of 2 μM P450 51A1 (same buffer), the observed rate of binding (ΔA430) was 25 s^−1.
P450 51A1 (2 μM) was premixed with an equivalent concentration of each of the sterols (in HPCD). Each of these solutions was placed in a drive syringe and rapidly mixed with 20 μM ketoconazole (yielding final concentrations of 1 μM P450 51A1 and 10 μM ketoconazole). The rate of the ΔA430-A390 change was used as the koff rate, that is, the rate at which the sterol left the P450 and allowed it to bind to the trap ligand ketoconazole.

[7] = substrate: CC(C)CCCC(C)[C@H]1CC[C@@]2(CO)C3=C(CC[C@]12C)[C@@]1(C)CC[C@H](O)C(C)(C)C1CC3; experiment: purified protein, by the assay type; conditions: other: oxidation to dihydro FF-MAS (epi-dihydro FF-MAS from epi substrate), 37 °C, pH 7.4
Protocol: (§1) Steady-state incubations (500 μl) were generally done at 37 °C with 0.025 μM P450 51A1, 0.10 μM NADPH-P450 reductase, 100 μM L-α-dilauroyl-sn-glycero-3-phosphocholine, 50 mM potassium phosphate buffer (pH 7.4), 10% (v/v) glycerol, and an indicated concentration of each sterol (in 45% (w/v) HPCD). Due to the high turnover rate of the 14α-aldehyde, the P450 and NADPH-P450 reductase concentrations were reduced (to 0.01 μM and 0.04 μM, respectively), and the reaction volume was increased (to 1 ml) to maximize sensitivity. The sterols (stored at 4 °C) were prepared as described above and were heated to 37 °C and sonicated prior to use. Sterol working stocks were diluted in HPCD to ensure a constant concentration of cyclodextrin in each reaction. […] Accordingly, all reactions were done with this concentration of glycerol.
(§2) Reactions were preincubated (5 min, 37 °C) prior to initiation with an NADPH-regenerating system (0.5 mM NADP^+, 10 mM glucose 6-phosphate, and 2 μg ml^−1 glucose 6-phosphate dehydrogenase) ([60]) and were stopped after 5 min with the addition of CH2Cl2 (5 ml). […] For the 14α-aldehyde, the times of preincubation and reaction were reduced (to 2 min and 1 min, respectively). The quenched mixture was centrifuged (2000g, 5 min), and 4 ml of the bottom (organic) layer was transferred to vials and brought to dryness under a stream of N2 gas. The dried residue was resuspended in CH3OH (100 μl) and was analyzed by UPLC using a 2.1 mm × 100 mm (1.7 μm) octadecylsilane (C18) column (held at 25 °C) and a Waters Acquity UPLC system. Samples (4 °C) were injected (10 μl) at a flow rate of 0.20 ml min^−1 using an isocratic mobile phase of CH3CN (only). The product (FF-MAS) was detected using a Waters Acquity photodiode array detector set at 250 nm (Fig. 4B). Data were processed using the MassLynx software (http://www.waters.com/waters/en_US/MassLynx-Mass-Spectrometry-Software-/nav.htm?cid=513164&locale=en_US), and the amount of product formed was calculated by comparison to a twelve-point dihydro FF-MAS standard curve. Determination of kcat and Km for each reaction was carried out by fitting the data to a Michaelis–Menten hyperbola, which was done using GraphPad Prism.

[8] = substrate: CC(C)CCCC(C)[C@H]1CC[C@@]2(C)C3=C(CC[C@]12C)[C@@]1(C)CC[C@H](O)C(C)(C)C1CC3; experiment: purified protein, by the assay type; conditions: pH 7.4
[9] = substrate: CC(C)CCCC(C)[C@H]1CC[C@@]2(C)C3=C(CC[C@]12C)[C@@]1(C)CC[C@@H](O)C(C)(C)C1CC3; experiment: purified protein, by the assay type; conditions: other: oxidation to dihydro FF-MAS (epi-dihydro FF-MAS from epi substrate), 37 °C, pH 7.4
Protocol: as §1, §2

[10] = substrate: CC(C)CCCC(C)[C@H]1CC[C@@]2(C=O)C3=C(CC[C@]12C)[C@@]1(C)CC[C@H](O)C(C)(C)C1CC3; experiment: purified protein, by the assay type; conditions: other: oxidation to dihydro FF-MAS (epi-dihydro FF-MAS from epi substrate), 37 °C, pH 7.4
Protocol: as §1, §2

Molecule: CC(C)CCCC(C)[C@H]1CC[C@@]2(C)C3=C(CC[C@]12C)[C@@]1(C)CC[C@@H](O)C(C)(C)C1CC3 (stereo partly drawn) [epi-dihydrolanosterol, epi-Dihydrolanosterol]
Kd (human P450 51A1 [1]): 14 nM
kcat (human P450 51A1 [2]): 0.42 ± 0.03 s⁻¹

pseudo-first-order observed rate of binding (human P450 51A1 [3]): 25 s⁻¹
Molecule: CC(=O)N1CCN(c2ccc(OCC3COC(Cn4ccnc4)(c4ccc(Cl)cc4Cl)O3)cc2)CC1 (centres unmarked) [ketoconazole]

Molecule: CC(C)CCC[C@@H](C)[C@H]1CC=C2C3=C(CC[C@@]21C)[C@@]1(C)CC[C@H](O)C(C)(C)[C@@H]1CC3 [dihydro FF-MAS, 24,25-dihydro FF-MAS]
concentration in single-turnover reaction (human P450 51A1 [4]; time 0.05 s, start 7 µM dihydrolanosterol): 0 µM
concentration in single-turnover reaction (human P450 51A1 [4]; time 0.1 s): 0 µM
concentration in single-turnover reaction (human P450 51A1 [4]; time 0.15 s): 0.2821 µM
concentration in single-turnover reaction (human P450 51A1 [4]; time 0.2 s): 0.4249 µM
concentration in single-turnover reaction (human P450 51A1 [4]; time 0.3 s): 0.7518 µM
concentration in single-turnover reaction (human P450 51A1 [4]; time 0.4 s): 1.2019 µM
concentration in single-turnover reaction (human P450 51A1 [4]; time 0.6 s): 2.506 µM
concentration in single-turnover reaction (human P450 51A1 [4]; time 0.8 s): 3.0184 µM
concentration in single-turnover reaction (human P450 51A1 [4]; time 1 s): 4.0537 µM
concentration in single-turnover reaction (human P450 51A1 [4]; time 1.2 s): 4.494 µM
concentration in single-turnover reaction (human P450 51A1 [4]; time 1.6 s): 4.8181 µM
concentration in single-turnover reaction (human P450 51A1 [4]; time 2 s): 5.2031 µM
concentration in single-turnover reaction (human P450 51A1 [4]; time 3 s): 5.8863 µM
concentration in single-turnover reaction (human P450 51A1 [4]; time 4 s): 6.6353 µM
concentration in single-turnover reaction (human P450 51A1 [4]; time 7 s): 7 µM
Kd (human P450 51A1 [1]; 1.0 μM P450 51A1, quadratic fit, read-out: Kd): 1400 nM
k^+ of sterol binding to P450 51A1 (kon) used for fitting (human P450 51A1 [5]; all kon set at this value): 2e+06 M⁻¹ s⁻¹
k^- of sterol binding to P450 51A1 (koff) used for fitting (human P450 51A1 [5]; optimized model): 2.0 s⁻¹
koff (human P450 51A1 [6]): 2 s⁻¹

B1: human P450 51A1 (Homo sapiens) (protein)
chain: T1 sequence (Q16850 1-509)
Km [7]: 4.3 ± 0.4 µM
kcat [7]: 0.67 ± 0.03 s⁻¹
kcat/Km ([8]; other: conversion to dihydro FF-MAS, isotope effect comparison): 1.3 (±0.2) × 10^5 M^−1 s^−1
Km ([8]; other: oxidation to dihydro FF-MAS (epi-dihydro FF-MAS from epi substrate), 37 °C): 5.0 ± 0.6 µM
Km [9]: 2.0 ± 0.4 µM
Km [10]: 5.4 ± 0.7 µM
kcat [10]: 1.7 ± 0.1 s⁻¹

Reference: paper PMC10285260, “Processive kinetics in the three-step lanosterol 14α-demethylation reaction catalyzed by human cytochrome P450 51A1” (The Journal of Biological Chemistry, 2023)
